Assays:
Format in all cases: cell-based, rat
[1] = test system: PC12 cells; assay: NGF-induced neurite outgrowth (neuritogenic activity) in PC12 cells; conditions: 72 hours
Method: The neuritogenic potential of PACA was verified by the induction of the main neuronal biomarkers (i.g., β3-tubulin, MAP-2 and GAP43). (A) Representative images for the potentiation of NGF-induced neurite outgrowth in PC12 cells by PACA. PC12 cells were treated with NGF (2 ng/ml) and PACA, alone or in combination. The cells were stained with neurite outgrowth staining kit and imaged under a fluorescence microscope. (B) Quantification of neurite outgrowth in Panel A. Following the staining of neurites, the cells bearing neurites longer than 20 μm were counted under a fluorescence microscope. **, p<0.01 (sample vs NGF alone). (C) Western blot analysis of neuronal biomarkers. The cells were treated with NGF and PACA, alone or in combination, whereas the control cells were treated with vehicle for 72 hours. The cellular proteins were extracted and detected by Western blot analysis for the expression of neuron marker. GAPDH was detected as the control of protein loading.
The neuritogenic activity of PACA was evaluated in rat dopaminergic PC12 cells. PC12 cells were treated with NGF (2 ng/mL) alone or in combination with PACA at the concentrations of 5, 10, 20 μM for 72 hours. The cells were stained by a neurite outgrowth kit, and subsequently analyzed for neurites (>20 μm) under a fluorescence microscope. […] Following the treatment with PACA and NGF, alone or in combination, PC12 cells were analyzed by Western blotting for the expression of neuronal biomarkers (i.g., β3-tubulin, MAP2 and GAP-43).

[2] = test system: PC12 cells; assay: 6-OHDA-induced neurotoxicity in PC12 cells, MTT cell viability; conditions: 6-OHDA with or without PACA, 24 hours
Method: Neurotoxin 6-hydroxydopamine (6-OHDA) is widely used to induce the cell model of human Parkinsonism. PC12 cells were treated with 6-OHDA with or without PACA for 24-hours, the cell viability was assessed by the colorimetric MTT assay. The relative cell viability was plotted against the concentrations of PACA. On the other hand, primary midbrain neurons were isolated from 17-day-old Sprague Dawley (SD) rat embryos. The midbrain neurons were treated with 6-OHDA with or without PACA for 12-hours, the cell viability was assessed by the colorimetric MTT assay. Alternatively, the neurons were stained with 5 μM of Hoechst 33342 and 1 μM of PI in the differentiation medium at 37° C. for 30 min. The images were captured on a Zeiss fluorescence microscope. (A) MTT assay of the cell viability in PC 12 cells. […] PI-positive and Hoechst 33342-stained neurons were counted under a fluorescence microscope. […]
Neurotoxin 6-hydroxydopamine (6-OHDA) is widely used to induce the cell model of human Parkinsonism. PC12 cells were treated with 6-OHDA with or without PACA for 24-hours, the cell viability was assessed by the colorimetric MTT assay. […] The midbrain neurons were treated with 6-OHDA with or without PACA for 12-hours, the cell viability was assessed by the colorimetric MTT assay. […] The images were captured on a Zeiss fluorescence microscope.

[3] = test system: PC12 cells; assay: Mitochondrial membrane integrity against 6-OHDA, JC-1 probe; conditions: 6-OHDA with PACA 5, 10, 20 and 50 μM
Method: PC12 cells were treated with 6-OHDA alone or in combination with PACA for 6 hours and subsequently stained with JC-1. The images were captured under a fluorescence microscope.
To investigate the neuroprotective mechanisms of PACA, PC12 cells were treated with 6-OHDA alone or in combination with PACA at the concentrations of 5, 10, 20 and 50 μM. At the end of treatment, the protection of PACA on the mitochondrial membrane integrity was examined by using a cell permeable fluorescent probe 5,5′,6,6′-tetrachloro-1,1′,3,3′-tetraethyl-benzimidazol-carbocyanine iodide (JC-1). 6-OHDA deadly disrupted the mitochondrial membrane integrity as indicated by the leakage of JC-1 into the cytosol.

[4] = test system: PC12 cells; assay: 6-OHDA-induced superoxide production, DHE staining; conditions: 6-OHDA with PACA 5, 10, 20 and 50 μM
Method: After the treatment with 6-OHDA alone or in combination with PACA at different concentrations, PC12 cells were stained with a fluorescent probe dihydroethidium (DHE) for the production of superoxide anion (A & B) and another fluorescent probe DAF-FM Diacetate for the production of nitric oxide ([…]), respectively. (A) Representative images of DHE-stained cells. 6-OHDA, 200 μM; PACA, 50 (B) PACA inhibited 6-OHDA-induced formation of superoxide ions. PC12 cells were treated with 6-OHDA alone or in combination with PACA for 6 h and subsequently stained with a probe DHE. The images were captured under a fluorescence microscope. The fluorescence was determined by ImageJ software. (C) Representative images of DAF-FM DA-stained cells. 6-OHDA, 200 μM; PACA, 50 μM. (D) PACA inhibited 6-OHDA-induced NO production. PC12 cells were treated with 6-OHDA alone or in combination with PACA for 6 h and subsequently stained with a probe DAF-FM DA. The images were captured under a fluorescence microscope. The fluorescence was determined by ImageJ software.
PC12 cells were treated with 6-OHDA alone or in combination with PACA at the concentrations of 5, 10, 20 and 50 μM. At the end of treatment, PC12 cells were then stained with a fluorescent probe dihydroethidium (DHE) for the production of superoxide anion and another fluorescent probe DAF-FM Diacetate for the production of nitric oxide, respectively.

Structure (SMILES): C#CCNC(=O)/C=C/c1ccc(O)c(O)c1 [PACA, (E)-3-(3,4-dihydroxyphenyl)-N-(prop-2-yn-1-yl)acrylamide]
- neurite outgrowth by compound alone ([1]; PACA 20 μM alone): did not induce neurite outgrowth
- increase in number of neurite-bearing cells relative to NGF alone ([1]; PACA 20 μM and NGF 2 ng/mL in combination): ~6 fold
- potentiation of NGF-induced neurite outgrowth ([1]; PACA 5, 10, 20 μM with NGF 2 ng/mL, neurites >20 μm, compared with NGF alone): significantly potentiated NGF-induced neurite outgrowth in a concentration-dependent manner
- 6-OHDA neurotoxicity in PC12 cells [2]: attenuated 6-hydroxydopamine (6-OHDA) neurotoxicity
- mitochondrial membrane integrity against 6-OHDA [3]: maintained the mitochondrial membrane integrity in a concentration-dependent manner
- 6-OHDA-induced formation of superoxide ions [4]: significantly attenuated
